Source: US5935945A, “Methods of treating or preventing cardiac arrhythmia” (Merck & Co., Inc., priority 1997, dated 1999)
pIC50: −log10 of the molar value.

Tests used:
[1] = target: T1, IKur (ultra-rapidly-activating delayed rectifier K^+ current) (Homo sapiens, UniProt P22460); assay: Voltage-clamp measurement of IKur in isolated human atrial myocytes; type: cell-based; conditions: rested state block, first pulse; 150 ms pulses to +40 mV from -50 mV; room temperature (22-24° C); read-out: Rested State IC50, IKur in Human Atrium
T1 construct: isolated human atrial myocytes; from tissue; host or cells: isolated myocytes from human right atrial appendage
T1 sequence (P22460 whole entry): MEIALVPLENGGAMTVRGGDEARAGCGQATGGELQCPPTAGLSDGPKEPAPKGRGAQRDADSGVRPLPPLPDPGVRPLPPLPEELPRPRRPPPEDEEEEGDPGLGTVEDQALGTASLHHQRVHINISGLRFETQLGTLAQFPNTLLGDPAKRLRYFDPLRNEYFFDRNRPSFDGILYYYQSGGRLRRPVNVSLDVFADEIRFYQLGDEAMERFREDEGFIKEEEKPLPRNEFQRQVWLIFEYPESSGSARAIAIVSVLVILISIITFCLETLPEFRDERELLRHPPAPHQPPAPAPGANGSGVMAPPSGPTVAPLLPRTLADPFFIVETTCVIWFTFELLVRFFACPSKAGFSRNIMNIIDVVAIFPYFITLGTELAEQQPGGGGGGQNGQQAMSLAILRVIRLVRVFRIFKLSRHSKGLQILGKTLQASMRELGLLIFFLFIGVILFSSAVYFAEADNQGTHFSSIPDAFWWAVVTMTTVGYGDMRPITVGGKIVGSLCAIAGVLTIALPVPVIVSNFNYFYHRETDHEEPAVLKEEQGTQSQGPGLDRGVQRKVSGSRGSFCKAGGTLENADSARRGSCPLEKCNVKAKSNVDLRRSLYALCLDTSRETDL
Description: J. Physiol. […] All tissues were collected in accordance with Temple University School of Medicine Institutional guidelines. […] Tissue samples were quickly immersed in cold (0-4° C.) cardioplegia solution containing (in mM/L): 50 KH2 PO4, 8 MgSO4, 10 NaHCO3, 5 adenosine, 25 taurine, 140 glucose, and 100 mannitol, pH 7.4 and bubbled with 100% O2. […] The tissue was gently agitated by continuous bubbling with 100% O2 for 5 min. […] The supernatant was removed after 40 min and discarded. The chunks were then incubated in a solution of the same ionic composition but supplemented with only collagenase and […] CaCl2. Microscopic examination of the medium was performed every 10-20 min to determine the number and quality of isolated cells. […] The supernatant was collected in a 50 ml centrifuge tube. […] Cells were used within 2-24 hr after isolation.
A small aliquot of the solution containing the isolated human atrial myocytes was placed in a 1-ml chamber mounted on the stage of an inverted microscope. Five minutes were allowed for cell adhesion to the bottom of the chamber. To record IKur, human atrial myocytes were superfused with a solution of the same ionic composition as that used for Kv1.5. An alternative external solution was sometimes used in which NaCl was replaced with NMDG (formal name: N-methyl-d-glucamine) to inhibit INa.
The amplitude of IKur was measured as the amplitude of the time-dependentcurrent at the end of the test pulse, relative to the holding current level. […] All experiments were performed at room temperature (22-24° C.).

[2] = target: T2, IKs (slowly activating delayed rectifier K^+ current) (Cavia porcellus, UniProt O70344); assay: Voltage-clamp measurement of IKs in guinea pig ventricular myocytes; type: cell-based; conditions: read-out: % Block (Guinea Pig Ventricle) IKs
T2 construct: Guinea pig ventricular myocytes were isolated; from tissue; host or cells: isolated guinea pig ventricular myocytes
T2 sequence (O70344 whole entry): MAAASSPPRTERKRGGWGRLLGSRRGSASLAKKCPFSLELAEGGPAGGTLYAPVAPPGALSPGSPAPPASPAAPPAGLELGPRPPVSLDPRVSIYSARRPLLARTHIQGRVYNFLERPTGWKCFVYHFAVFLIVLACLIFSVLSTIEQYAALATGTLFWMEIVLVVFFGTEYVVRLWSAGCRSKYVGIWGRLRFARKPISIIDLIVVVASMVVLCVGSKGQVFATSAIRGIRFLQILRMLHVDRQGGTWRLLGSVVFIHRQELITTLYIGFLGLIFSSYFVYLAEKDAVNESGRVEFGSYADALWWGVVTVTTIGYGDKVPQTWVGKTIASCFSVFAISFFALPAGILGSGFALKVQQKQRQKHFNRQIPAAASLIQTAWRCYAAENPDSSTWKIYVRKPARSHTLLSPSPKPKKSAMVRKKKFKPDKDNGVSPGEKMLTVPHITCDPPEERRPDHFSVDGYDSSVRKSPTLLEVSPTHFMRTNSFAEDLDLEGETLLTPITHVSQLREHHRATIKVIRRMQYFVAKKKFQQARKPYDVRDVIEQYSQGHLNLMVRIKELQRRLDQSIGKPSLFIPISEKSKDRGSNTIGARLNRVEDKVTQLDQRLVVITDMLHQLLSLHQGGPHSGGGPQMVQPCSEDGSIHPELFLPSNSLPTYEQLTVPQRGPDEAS
T2 sequence (Q60409 whole entry partner): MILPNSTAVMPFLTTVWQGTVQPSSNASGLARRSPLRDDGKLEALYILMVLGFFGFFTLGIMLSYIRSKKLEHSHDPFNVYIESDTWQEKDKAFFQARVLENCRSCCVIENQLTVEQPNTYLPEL
Description: Guinea pig ventricular myocytes were isolated using a modification of the procedure described by Mitra et al., Am. J. Physiol. 249:H1056-60 (1985). Excised hearts were perfused through the aorta (retrograde fashion) at a rate of 10 ml/min with oxygenated, warmed (37° C.) solutions described below. The heart was initially perfused for 7 minutes with a Tyrode's solution containing, (in mM): 132 NaCl, 4 KCl, 1.2 MgCl2, 10 HEPES, 5 glucose, pH=7.2. The heart was then perfused with the same nominally Ca^2+ -free solution containing 150 units/ml Type II collagenase (Worthington) and 0.5 units/ml Type XIV protease (Sigma) for 8 minutes. This perfusate was followed by a Tyrode's solution containing 0.2 mM CaCl2 (without enzymes) for 5 minutes. The digested ventricles were cut into small pieces and gently shaken until cells were visibly dispersed. The cells were stored at room temperature until use, within 8 hours after isolation.
The suction microelectrode technique described by Giles, W. R. and Shibata, E. F., "Voltage clamp of bull-frog cardiac pacemaker cells: a quantitative analysis of potassium currents", J. Physiol. 368:265-292 (1985) was used to voltage clamp the cells. Microelectrodes were made by using a two stage puller from square bore (1.0 mm o.d.) borosilicate capillary tubing. Pipettes were filled with 0.5 M K gluconate, 25 mM KCl and 5 mM K2 ATP. The electrodes had resistances of 3 to 7 M.OMEGA. when filled with this solution. After establishing whole-cell recording mode, negative pressure was maintained on the pipette using a 1 ml gas-tight syringe attached via air tight tubing to the suction port of the microelectrode holder. This minimized dialysis of the cell with the pipette solution.
To record K^+ currents, the cells were bathed in a Ca^2+ -free Tyrode's solution containing […]. […] To record Ca^2+ currents, the cells were bathed in Tyrode's solution containing 1.8 mM Ca^2+ without nisoldipine. The cell chamber was superfused with solutions at a rate of 1-2 ml/minute, while maintaining the temperature at 35±1° C. A List EPC-7 clamp amplifier was used to voltage clamp the isolated cells. […] (Sanguinetti M. C. and Jurkiewicz, N. K., "Two components of cardiac delayed rectifier K^+ current: Differential sensitivity to block by Class III antiarrhythmic agents", J. Gen Physiol 1990; 96:194-214.) Data was analyzed as % block from control membrane currents.
Nisoldipine was prepared as a 4 mM stock solution in polyethylene glycol 200. […] At the final concentrations used neither polyethylene glycol 200 nor dimethyl sulfoxide had any effect on any of the measured membrane currents.
Selectivity for block of cardiac K^+ channels, IK1, IKr, and IKs was determined as previously described in guinea pig ventricular myocytes (U.S. Pat. No. 5,428,031).

Row | pIC50 [1] | inhibition at 10 µM ([2]; @ 10 μM) | Compound | inhibition at 3 µM [2]
1 | 7.10 |  | COc1ccc(-n2nc(Sc3ccc(C)cc3)c(C)c(C#N)c2=O)cc1 [Compound B] | 13.6%
2 | 6.64 | 4% | COc1ccc(-n2nc(Sc3ccc(Cl)cc3)c(C)c(C#N)c2=O)cc1 [Compound A, 6-(4-Chlorophenylthio)-2-(4-methoxyphenyl)-5-methyl-3-oxo-2,3-dihydropyridazine-4-carbonitrile] | 

Row | Compound | pIC50 [1] | inhibition at 10 µM ([2]; @ 10 μM) | inhibition at 3 µM [2]
3 | Cc1cc(C)c(CP(=O)(c2ccccc2)c2ccccc2)c(-c2ccc(F)c(C)c2)c1 [Compound C, 2-(Diphenylphosphinylmethyl)-4'-fluoro-3,5,3'-trimethyl-biphenyl] | 6.11 |  | 12.2%
